Data as given in paper PMC5333395, “Assessing histone demethylase inhibitors in cells: lessons learned” (Epigenetics & Chromatin, 2017).
Like-named read-outs stand apart in the source and are kept apart here.

Experiments:
KDM5B [1] = molecular target: T1, KDM5B (Homo sapiens, UniProt Q9UGL1); set-up: method as in PMID 26741168; conditions: AlphaScreen; in vitro biochemical profiling previously reported; cited from earlier work
HeLa cells [2] = assay: Cell number in the high-content screen (DAPI staining) as measure of toxicity; conditions: concentrations used in the IF assays
Text: (§2) Immunofluorescence images of 20 fields (if not indicated otherwise) were captured through a 20× objective on a PerkinElmer Operetta or the GE IN Cell 6000 using the appropriate filters and light sources for exciting DAPI, Alexafluor 488, and Alexafluor 568 or Alexafluor 647. […] From the DAPI channel, a binary mask was created to exclude individual nuclei smaller than 100 µm^2 and those overlapping the edge of the field.

KDM5B [3] = molecular target: T1, KDM5B; assay: High-content immunofluorescence (IF) assay, overexpressed full-length FLAG-tagged KDM in HeLa cells; type: cell-based; set-up: transiently transfecting the full-length FLAG-tagged demethylase (WT) into cells; expressed in transfected cells; host or cells: HeLa; conditions: for EC50: HeLa cells overexpressing WT KDM5B, H3K4me3 mark, 24 h, read-out: KDM5B, in cells, EC50 by IF assay (head: IC50); for Effect on H3K4me3 mark in KDM5B IF assay, in words: HeLa cells transfected with KDM5B
Experimental: HeLa cells (ATCC) were cultured at 37 °C and 5% CO2 in Minimal Essential Media—Eagle (Sigma-Aldrich, UK) supplemented with 10% heat-inactivated foetal calf serum (FCS) (Gibco, UK), and 1% L-glutaMAX (Gibco, UK) in T75 flasks (Sarstedt, UK) and passaged regularly with TrypLE (Life Technologies, UK) before cells reached confluence. On day 0, 7000 cells per well were plated on a 96-well clear bottom CellCarrier plate (PerkinElmer, UK). The next day the cells were transfected with Lipofectamine 3000 (ThermoFisher Scientific, UK) following the manufacturer’s instructions. Briefly, 0.1 µg of plasmid DNA (encoding for the respective demethylase) and 0.15 µL of Lipofectamine 3000 were diluted in separate tubes containing 5 µL OptiMEM. 0.15 µL of P3000 was added to the tube with the DNA. The two solutions were then mixed gently and allowed to incubate for 5 min at room temperature. Next, the DNA-lipid complex was added to the cells for 4 h at 37 °C and 5% CO2.
Compound dilutions were made in a 96-well PCR plate (Starlab, UK). The culture medium was supplemented with 0.4% DMSO so that the solvent concentration was maintained throughout. Compounds were serially diluted at a 1:2 or 1:3 dilution ratio. Next, the cell culture plate was removed from the incubator and the medium was gently aspirated and replaced with the fresh medium containing diluted compounds.
Then cells were rinsed once with PBS and blocked for 30 min at room temperature using 3% v/v foetal calf serum diluted in PBS.

HeLa cells [4] = assay: Hoechst 33342/Yo-Pro 3/Annexin triple staining, live cell death pattern analysis; type: cell-based
Experimental: Cells exposed to the inhibitors for 24 h were stained with Hoechst 33342 (1 µM), Yo-Pro 3 (1 µM) and Annexin V (0.3 μL per well) for 1 h. Cellular fluorescence was measured using the IN Cell 6000 (GE) using the following set-up parameters: bright-field transmitted light at 50% for 15 ms; Hoechst 33342 was excited by 35-ms exposure(Ex 360–400 nm/Em 410–480 nm), Yo-Pro 3 by 35-ms exposure(Ex 560–580 nm/Em 650–760 nm) and Annexin V (Alexa 488) by 45-ms exposure(Ex 460–490 nm/Em 500–550 nm). All the generated data were analysed using the IN Cell Analyser software, and three categories were distinguished: healthy cells, apoptosis and necrosis—calculated as percentage of each class for every concentration used.

HeLa cells [5] = test system: HeLa cells
Text: as §2

KDM4C = molecular target: T2, KDM4C (Homo sapiens, UniProt Q9H3R0); assay: AlphaScreen in vitro demethylase assay; type: biochemical; conditions: in vitro KDM assay, Table S3; * likely false positive due to colour quenching; read-out: KDM4C IC50
T2 sequence (Q9H3R0 1-1056): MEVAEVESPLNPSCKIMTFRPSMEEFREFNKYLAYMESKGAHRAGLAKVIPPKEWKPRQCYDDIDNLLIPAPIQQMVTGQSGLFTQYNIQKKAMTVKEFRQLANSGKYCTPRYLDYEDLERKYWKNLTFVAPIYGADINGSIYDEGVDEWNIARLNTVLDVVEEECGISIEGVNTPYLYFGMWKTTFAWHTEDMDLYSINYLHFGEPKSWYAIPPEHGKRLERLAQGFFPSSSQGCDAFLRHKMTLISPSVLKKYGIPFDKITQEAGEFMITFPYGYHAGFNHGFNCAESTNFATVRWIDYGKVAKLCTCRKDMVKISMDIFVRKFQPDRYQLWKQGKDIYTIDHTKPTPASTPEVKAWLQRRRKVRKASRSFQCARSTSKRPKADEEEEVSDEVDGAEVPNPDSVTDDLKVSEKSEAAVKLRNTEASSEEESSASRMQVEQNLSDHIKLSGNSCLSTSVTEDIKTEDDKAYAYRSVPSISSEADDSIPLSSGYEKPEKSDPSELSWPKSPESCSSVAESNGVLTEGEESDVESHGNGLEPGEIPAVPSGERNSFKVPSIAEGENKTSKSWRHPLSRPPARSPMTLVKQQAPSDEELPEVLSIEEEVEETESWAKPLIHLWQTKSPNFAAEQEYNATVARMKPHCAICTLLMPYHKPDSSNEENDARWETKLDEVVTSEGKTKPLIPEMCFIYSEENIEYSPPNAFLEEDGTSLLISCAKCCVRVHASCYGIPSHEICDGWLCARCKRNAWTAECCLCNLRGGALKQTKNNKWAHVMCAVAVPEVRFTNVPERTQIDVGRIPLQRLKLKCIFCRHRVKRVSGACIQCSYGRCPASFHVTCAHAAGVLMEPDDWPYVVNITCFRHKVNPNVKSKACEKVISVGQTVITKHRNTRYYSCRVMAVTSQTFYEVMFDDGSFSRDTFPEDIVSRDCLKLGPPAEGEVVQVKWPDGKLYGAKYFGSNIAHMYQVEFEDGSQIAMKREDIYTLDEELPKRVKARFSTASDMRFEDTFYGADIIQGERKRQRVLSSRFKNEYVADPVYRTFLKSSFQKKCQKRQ
Experimental: (§1) IC50 values were determined as previously described. The following amendments were made to the protocol for carrying out 2-OG competition assays.

KDM5B [6] = molecular target: T1, KDM5B; assay: AlphaScreen in vitro demethylase assay; type: biochemical
Experimental: as §1

KDM6B = KDM6B (Homo sapiens, UniProt O15054); assay: AlphaScreen in vitro demethylase assay; type: biochemical; conditions: in vitro KDM assay, Table S3; * likely false positive due to colour quenching; read-out: KDM6B IC50
Experimental: as §1

KDM3A = molecular target: T3, KDM3A (Homo sapiens, UniProt Q9Y4C1); assay: AlphaScreen in vitro demethylase assay; type: biochemical; conditions: IC50 ± SD (number of replicates)
T3 sequence (Q9Y4C1 1-1321): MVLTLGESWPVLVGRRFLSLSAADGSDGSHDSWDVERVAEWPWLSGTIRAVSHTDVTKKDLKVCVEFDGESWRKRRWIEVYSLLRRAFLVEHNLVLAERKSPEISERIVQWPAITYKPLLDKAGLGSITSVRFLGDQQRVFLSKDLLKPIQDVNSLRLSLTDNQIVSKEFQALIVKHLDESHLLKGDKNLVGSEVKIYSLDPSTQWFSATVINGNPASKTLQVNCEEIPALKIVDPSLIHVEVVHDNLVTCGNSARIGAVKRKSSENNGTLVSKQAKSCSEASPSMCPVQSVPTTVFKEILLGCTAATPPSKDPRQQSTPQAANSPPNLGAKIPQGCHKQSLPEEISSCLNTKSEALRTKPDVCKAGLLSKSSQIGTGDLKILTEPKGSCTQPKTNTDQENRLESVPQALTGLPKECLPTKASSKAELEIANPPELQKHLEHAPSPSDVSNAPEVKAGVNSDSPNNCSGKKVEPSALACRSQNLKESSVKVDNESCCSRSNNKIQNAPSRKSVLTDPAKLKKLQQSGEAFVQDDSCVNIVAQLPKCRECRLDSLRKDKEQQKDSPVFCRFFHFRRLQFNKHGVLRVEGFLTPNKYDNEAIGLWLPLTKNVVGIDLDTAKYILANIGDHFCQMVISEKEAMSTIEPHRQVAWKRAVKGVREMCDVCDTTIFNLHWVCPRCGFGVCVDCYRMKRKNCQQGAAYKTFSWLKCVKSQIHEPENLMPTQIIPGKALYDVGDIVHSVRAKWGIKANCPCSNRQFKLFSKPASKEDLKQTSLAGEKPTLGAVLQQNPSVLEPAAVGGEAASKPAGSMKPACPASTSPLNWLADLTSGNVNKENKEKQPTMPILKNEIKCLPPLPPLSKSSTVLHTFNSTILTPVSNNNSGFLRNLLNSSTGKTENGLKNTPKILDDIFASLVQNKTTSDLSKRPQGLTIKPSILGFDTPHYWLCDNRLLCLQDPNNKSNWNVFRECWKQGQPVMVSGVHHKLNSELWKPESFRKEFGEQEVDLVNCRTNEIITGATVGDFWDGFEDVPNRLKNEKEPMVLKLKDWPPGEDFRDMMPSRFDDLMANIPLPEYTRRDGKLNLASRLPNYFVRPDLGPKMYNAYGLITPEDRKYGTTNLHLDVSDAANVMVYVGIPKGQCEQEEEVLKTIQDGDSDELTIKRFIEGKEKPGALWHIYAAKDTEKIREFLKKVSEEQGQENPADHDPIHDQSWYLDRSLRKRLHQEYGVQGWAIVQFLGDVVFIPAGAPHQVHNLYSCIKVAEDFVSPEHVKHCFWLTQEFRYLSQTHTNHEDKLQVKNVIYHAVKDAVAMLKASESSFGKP
Experimental: as §1

KDM5C = KDM5C (Homo sapiens, UniProt P41229); assay: AlphaScreen in vitro demethylase assay; type: biochemical; conditions: IC50 ± SD (number of replicates)
Experimental: as §1

H3K9me2 mark = assay: IF assay of histone mark in HeLa cells treated with cytotoxic agents
H3K27me3 mark = assay: as above
H3K36me2 mark = assay: as above
H3K4me3 mark = assay: as above
[7] = HeLa cells, 24 h, dose-dependent
[8] = in vitro KDM assay, Table S3, * likely false positive due to colour quenching, read-out: KDM5B IC50

T1 sequence (Q9UGL1 whole entry): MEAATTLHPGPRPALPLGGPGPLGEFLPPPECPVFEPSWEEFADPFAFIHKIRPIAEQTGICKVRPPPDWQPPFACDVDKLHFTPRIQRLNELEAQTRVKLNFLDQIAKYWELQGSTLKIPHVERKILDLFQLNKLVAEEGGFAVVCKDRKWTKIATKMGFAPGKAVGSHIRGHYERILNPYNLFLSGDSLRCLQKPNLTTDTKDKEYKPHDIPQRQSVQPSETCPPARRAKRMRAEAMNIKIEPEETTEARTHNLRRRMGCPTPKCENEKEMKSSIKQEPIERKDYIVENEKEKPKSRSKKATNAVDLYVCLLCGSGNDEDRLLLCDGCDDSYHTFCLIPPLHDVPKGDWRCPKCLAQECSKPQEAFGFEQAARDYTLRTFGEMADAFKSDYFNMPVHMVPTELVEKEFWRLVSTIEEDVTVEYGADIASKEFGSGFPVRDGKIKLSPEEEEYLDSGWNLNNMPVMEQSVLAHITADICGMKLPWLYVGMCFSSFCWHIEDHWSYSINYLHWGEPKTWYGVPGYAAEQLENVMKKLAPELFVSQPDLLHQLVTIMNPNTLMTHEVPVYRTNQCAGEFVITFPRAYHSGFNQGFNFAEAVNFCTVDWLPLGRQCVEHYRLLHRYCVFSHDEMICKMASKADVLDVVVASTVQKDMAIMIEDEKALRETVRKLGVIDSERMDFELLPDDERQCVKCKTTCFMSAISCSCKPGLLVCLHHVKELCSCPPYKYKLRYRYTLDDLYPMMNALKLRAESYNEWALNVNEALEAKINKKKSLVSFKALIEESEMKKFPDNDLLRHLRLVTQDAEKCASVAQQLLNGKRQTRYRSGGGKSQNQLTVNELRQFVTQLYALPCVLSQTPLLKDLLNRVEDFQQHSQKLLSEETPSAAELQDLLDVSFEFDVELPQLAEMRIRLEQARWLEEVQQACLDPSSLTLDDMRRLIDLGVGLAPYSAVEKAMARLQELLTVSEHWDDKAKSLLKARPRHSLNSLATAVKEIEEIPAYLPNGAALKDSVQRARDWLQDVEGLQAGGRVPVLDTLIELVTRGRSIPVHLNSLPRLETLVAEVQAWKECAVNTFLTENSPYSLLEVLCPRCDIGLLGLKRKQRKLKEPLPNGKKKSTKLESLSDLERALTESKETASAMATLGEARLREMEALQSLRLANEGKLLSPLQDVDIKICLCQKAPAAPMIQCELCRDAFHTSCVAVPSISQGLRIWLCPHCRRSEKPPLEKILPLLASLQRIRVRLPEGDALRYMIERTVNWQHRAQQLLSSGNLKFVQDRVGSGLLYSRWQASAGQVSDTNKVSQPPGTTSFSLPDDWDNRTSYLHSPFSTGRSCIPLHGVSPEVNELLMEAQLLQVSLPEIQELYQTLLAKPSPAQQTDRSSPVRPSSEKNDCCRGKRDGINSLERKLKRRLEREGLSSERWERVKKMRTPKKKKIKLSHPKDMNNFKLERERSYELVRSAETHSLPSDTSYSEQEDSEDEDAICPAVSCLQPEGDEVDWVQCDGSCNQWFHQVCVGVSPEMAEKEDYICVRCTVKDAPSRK
KDM6B, sequence (O15054 whole entry): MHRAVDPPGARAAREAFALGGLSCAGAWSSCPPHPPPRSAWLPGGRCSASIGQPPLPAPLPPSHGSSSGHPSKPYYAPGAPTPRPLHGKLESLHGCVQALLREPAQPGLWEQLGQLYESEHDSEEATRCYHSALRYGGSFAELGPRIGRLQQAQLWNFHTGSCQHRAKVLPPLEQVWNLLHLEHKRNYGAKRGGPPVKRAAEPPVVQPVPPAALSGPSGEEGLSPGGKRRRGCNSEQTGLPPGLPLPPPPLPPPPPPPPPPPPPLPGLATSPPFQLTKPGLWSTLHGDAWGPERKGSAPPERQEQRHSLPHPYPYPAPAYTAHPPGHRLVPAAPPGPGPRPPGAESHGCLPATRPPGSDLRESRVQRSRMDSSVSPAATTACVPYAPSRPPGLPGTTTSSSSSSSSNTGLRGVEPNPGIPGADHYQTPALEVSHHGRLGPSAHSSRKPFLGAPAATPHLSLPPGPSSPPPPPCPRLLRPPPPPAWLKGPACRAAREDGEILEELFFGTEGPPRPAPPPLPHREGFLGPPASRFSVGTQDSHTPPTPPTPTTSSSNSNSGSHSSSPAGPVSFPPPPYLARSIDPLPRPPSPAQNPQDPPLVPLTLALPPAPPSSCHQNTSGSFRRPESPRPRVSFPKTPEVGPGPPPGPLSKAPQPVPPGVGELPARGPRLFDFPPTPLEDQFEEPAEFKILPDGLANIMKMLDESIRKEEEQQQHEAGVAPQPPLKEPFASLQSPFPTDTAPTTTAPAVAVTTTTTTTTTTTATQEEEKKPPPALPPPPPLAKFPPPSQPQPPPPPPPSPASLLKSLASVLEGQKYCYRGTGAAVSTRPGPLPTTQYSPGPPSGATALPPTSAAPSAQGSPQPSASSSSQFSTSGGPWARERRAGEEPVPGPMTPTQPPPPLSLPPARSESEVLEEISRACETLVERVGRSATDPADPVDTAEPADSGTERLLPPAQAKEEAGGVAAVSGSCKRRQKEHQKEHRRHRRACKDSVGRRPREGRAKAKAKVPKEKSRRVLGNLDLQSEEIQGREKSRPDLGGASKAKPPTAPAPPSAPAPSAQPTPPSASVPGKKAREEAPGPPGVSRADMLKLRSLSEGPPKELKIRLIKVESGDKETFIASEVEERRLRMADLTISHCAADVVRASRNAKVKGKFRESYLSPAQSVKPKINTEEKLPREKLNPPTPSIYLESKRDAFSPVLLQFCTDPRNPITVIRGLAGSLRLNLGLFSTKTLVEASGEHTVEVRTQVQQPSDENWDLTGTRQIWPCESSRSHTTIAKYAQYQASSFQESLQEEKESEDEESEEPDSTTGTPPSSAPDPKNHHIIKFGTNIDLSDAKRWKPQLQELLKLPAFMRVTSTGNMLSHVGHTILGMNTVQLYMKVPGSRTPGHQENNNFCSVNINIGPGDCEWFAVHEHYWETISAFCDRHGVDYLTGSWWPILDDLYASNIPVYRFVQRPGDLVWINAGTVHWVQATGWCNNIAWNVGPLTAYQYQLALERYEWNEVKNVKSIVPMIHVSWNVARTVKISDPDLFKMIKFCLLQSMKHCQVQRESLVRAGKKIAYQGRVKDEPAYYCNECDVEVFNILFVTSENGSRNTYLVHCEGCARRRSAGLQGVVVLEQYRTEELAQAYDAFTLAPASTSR
KDM5C, sequence (P41229 whole entry): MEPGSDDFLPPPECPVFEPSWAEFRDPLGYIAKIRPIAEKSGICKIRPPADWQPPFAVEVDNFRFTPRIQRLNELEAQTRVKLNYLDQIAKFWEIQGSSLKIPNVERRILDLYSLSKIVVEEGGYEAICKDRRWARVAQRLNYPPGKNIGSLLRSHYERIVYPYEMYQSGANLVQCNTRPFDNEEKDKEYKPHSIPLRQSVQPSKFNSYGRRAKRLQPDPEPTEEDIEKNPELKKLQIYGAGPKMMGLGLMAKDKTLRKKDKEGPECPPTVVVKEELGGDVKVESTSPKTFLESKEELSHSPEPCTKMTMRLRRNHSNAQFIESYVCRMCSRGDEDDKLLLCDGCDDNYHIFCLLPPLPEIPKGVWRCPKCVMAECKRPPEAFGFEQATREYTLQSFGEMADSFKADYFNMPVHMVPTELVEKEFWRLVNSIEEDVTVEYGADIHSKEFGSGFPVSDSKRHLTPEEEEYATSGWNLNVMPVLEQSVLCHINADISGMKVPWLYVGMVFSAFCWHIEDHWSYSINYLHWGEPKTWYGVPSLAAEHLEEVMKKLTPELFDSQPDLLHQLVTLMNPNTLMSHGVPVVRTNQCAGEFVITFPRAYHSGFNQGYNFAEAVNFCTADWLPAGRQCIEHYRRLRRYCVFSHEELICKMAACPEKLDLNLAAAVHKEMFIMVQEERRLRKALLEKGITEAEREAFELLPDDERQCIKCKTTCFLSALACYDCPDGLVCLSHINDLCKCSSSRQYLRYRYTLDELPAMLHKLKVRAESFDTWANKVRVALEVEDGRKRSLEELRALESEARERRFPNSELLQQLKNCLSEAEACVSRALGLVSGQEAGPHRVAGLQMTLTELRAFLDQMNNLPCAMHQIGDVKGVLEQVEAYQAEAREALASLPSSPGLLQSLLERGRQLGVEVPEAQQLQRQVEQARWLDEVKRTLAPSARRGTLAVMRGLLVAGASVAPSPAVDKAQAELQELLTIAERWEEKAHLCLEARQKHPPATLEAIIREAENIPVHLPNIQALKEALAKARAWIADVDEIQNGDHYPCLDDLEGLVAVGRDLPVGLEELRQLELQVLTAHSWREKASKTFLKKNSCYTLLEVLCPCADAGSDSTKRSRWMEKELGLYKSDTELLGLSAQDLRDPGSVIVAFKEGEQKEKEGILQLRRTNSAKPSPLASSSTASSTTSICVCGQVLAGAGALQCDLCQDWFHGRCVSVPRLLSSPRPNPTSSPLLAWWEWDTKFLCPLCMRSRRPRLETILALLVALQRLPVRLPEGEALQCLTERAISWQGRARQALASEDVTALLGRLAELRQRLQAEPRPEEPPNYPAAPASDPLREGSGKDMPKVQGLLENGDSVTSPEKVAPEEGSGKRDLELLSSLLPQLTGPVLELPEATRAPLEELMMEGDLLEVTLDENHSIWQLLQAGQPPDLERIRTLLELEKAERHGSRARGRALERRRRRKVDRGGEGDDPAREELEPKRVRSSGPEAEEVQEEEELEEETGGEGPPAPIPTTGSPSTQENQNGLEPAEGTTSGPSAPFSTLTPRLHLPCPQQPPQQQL

For `O=C(O)c1ccc(O)c2ncccc12` [IOX1], the IC50 (KDM5B [1]) is given as 20.6 ± 9 µM, the “Toxicity as measured by cell count (number of cells, DAPI staining)” value (shortened to “Toxicity as measured by cell count”) (HeLa cells [2]) is given as “only observed cell toxicity at high concentrations” and the EC50 (KDM5B [3]) is given as 62 µM. For the same molecule, the “Effect on H3K4me3 mark in KDM5B IF assay, in words” value (KDM5B [3]) was “dose-dependent increase of H3K4me3” and the “Cell death in triple staining (healthy, apoptotic, necrotic), in words” value (from here on “Cell death in triple staining”) (HeLa cells [4]; [7]) was “little to no cell toxicity”.

With `CCOC(=O)CCNc1cc(N2CCc3ccccc3CC2)nc(-c2ccccn2)n1` [GSK-J4] the “Effect on H3K4me3 mark in KDM5B IF assay, in words” value (KDM5B [3]) was “increase of the H3K4me3 mark” and the “Toxicity as measured by cell count” value (HeLa cells [5]) was “only minor toxicity at the highest concentrations used”.

With `CCOC(=O)CCNc1cc(N2CCc3ccccc3CC2)nc(-c2cccnc2)n1` [GSK-J5] the “Toxicity as measured by cell count” value (HeLa cells [2]) was “only minor toxicity at the highest concentrations used” and the necrotic cells (HeLa cells [4]; HeLa cells, 50 µM) was “about 60%”.

In the case of `CN[C@@H]1C[C@H]2O[C@@](C)([C@@H]1OC)n1c3ccccc3c3c4c(c5c6ccccc6n2c5c31)C(=O)NC4` [Staurosporine, staurosporine], the IC50 (KDM4C) is reported as greater than 100 µM, the IC50 (KDM5B [6]; [8]) is reported as greater than 100 µM and the IC50 (KDM6B) is reported as greater than 100 µM. The “Cell death in triple staining” value (HeLa cells [4]; [7]) was “predominant apoptotic staining”.

Work on `Clc1ccc(N/N=C(/c2ccccc2)c2ccccn2)nc1` [JIB-04 Z] yielded an EC50 (KDM5B [3]) greater than 100 µM, an IC50 (KDM5B [6]; AlphaScreen, IC50 ± SD (number of replicates), read-out: KDM5B IC50, in vitro) of 7.01 µM and an IC50 (KDM3A) greater than 10 µM. The IC50 (KDM5C) was greater than 10 µM.

With `COc1cccc2c1C(=O)c1c(O)c3c(c(O)c1C2=O)C[C@@](O)(C(=O)CO)C[C@@H]3O[C@H]1C[C@H](N)[C@H](O)[C@H](C)O1` [Doxorubicin, doxorubicin] the “Toxicity as measured by cell count” value (HeLa cells [2]) was “induced cell death”, the “Effect on H3K9me2 levels, in words” value (H3K9me2 mark) was “some increase” and the “Cell death in triple staining” value (HeLa cells [4]) was “predominant apoptotic staining”. For the same molecule, the “Effect on H3K27me3 mark, in words” value (H3K27me3 mark) was “profound effect”, the “Effect on H3K36me2 levels, in words” value (H3K36me2 mark) was “only marginally affected” and the “Effect on H3K4me3 levels, in words” value (H3K4me3 mark) was “no effect on this mark”.

In the case of `CC(=O)O[C@H]1C(=O)[C@@]2(C)[C@H]([C@H](OC(=O)c3ccccc3)[C@]3(O)C[C@H](OC(=O)[C@H](O)[C@@H](NC(=O)c4ccccc4)c4ccccc4)C(C)=C1C3(C)C)[C@]1(OC(C)=O)CO[C@@H]1C[C@@H]2O` [Paclitaxel, paclitaxel], the “Toxicity as measured by cell count” value (HeLa cells [2]) is reported as “induced cell death”, the IC50 (KDM4C) is reported as greater than 100 µM and the IC50 (KDM5B [6]; [8]) is reported as greater than 100 µM. The IC50 (KDM6B) was greater than 100 µM, the “Effect on H3K9me2 levels, in words” value (H3K9me2 mark) was “not affected” and the “Cell death in triple staining” value (HeLa cells [4]) was “predominant apoptotic staining”. For the same molecule, the “Effect on H3K27me3 mark, in words” value (H3K27me3 mark) was “profound effect”, the “Effect on H3K36me2 levels, in words” value (H3K36me2 mark) was “only marginally affected” and the “Effect on H3K4me3 levels, in words” value (H3K4me3 mark) was “dose-dependent increase of H3K4me3”.
